# Experiments:
# C3H/10T1/2 cells = assay: Adipocyte differentiation inhibitory ability (Oil Red O staining); type: cell-based, mouse
# Method: C3H/10T1/2 cells, which are mouse mesenchymal progenitor cells purchased from ATCC, were diluted in DMEM (Dulbecco's Modified Eagle Medium) medium containing 5.958 g/L HEPES, 3.7 g/L sodium bicarbonate and 10% FBS (fetal bovine serum), and cultured in 24-well culture plates at a density of 4×10^4 cells/well, in the presence of 5% CO2 at 37° C. for 2 days. When the cultured cells were grown to 90˜100% confluency in the culture plates, the cells were cultured in DMEM medium containing 10% FBS, to which 5μ/ml insulin, 1 μM dexamethason, and 5 μM troglitazone were added, in the presence of 5% CO2 at 37° C. for 8 days, to induce differentiation into adipocyte. The medium was exchanged every other day during differentiation. The C3H/10T1/2 cell line, in which differentiation into the adipocyte was induced, was fixed with 3.7% formaldehyde at room temperature for 30 minutes. An oil Red O solution dissolved in isopropanol at a concentration of 0.5% was diluted in distilled water at a ratio of 6:4, filtered through a 0.2 μm filter, and poured to the fixed cell line, which was stained for 1 hour. In order to observe only the cells differentiated into the adiopocyte, the dye solution was removed and the cells were washed with distilled water two times.
# 116V specimen extracted from sponge was dissolved in DMSO solvent, and allowed to treat C3H/10T1/2 cell lines, which are mouse mesenchymal progenitor cells, at concentrations of 1, 2.5, 5, 10, and 20 μg/ml. […] Then, after specimens of the compound 1 (1163), the compound 2 (1162), the compound 3 (1161), and the compound 4 (1164), which were purely separated from the 116V and 116VI species were obtained, the same experiment was performed. […] Remarkable cytotoxicity was not observed in each of the specimens during differentiation of adipocytes (FIG. 8).
# HepG2 cells = assay: Gene expression regulation in liver cells (real-time PCR); type: cell-based; details: HepG2 human liver cells
# Method: (§1) In order to verify efficacy of the developed liver-X-receptor antagonist, the function of regulating gene expression was identified in mouse liver cells and human liver cells. In the present experiment, mouse liver cells, AML 12 cells and human liver cells, and HepG2 cells were used. AML12 cells were cultured in DMEM medium within a cell incubator with 5% carbon dioxide at 37° C. The medium contained 10% fetal bovine serum (FBS), 100 U/ml penicillin, and 100 μg/ml streptomycin. On day 1 of the experiment, AML12 cells are seeded in 6 well plates. On day 2, when the cells were grown to 80% confluency, the medium was replaced by the DMEM medium not containing serum, and then three wells per treatment group were treated with TO901317 and the developed liver-X-receptor antagonist. […] The extracted RNAs were quantified, and 1 μg of the extracted RNAs per each sample were used in cDNA synthesis. […] The cDNAs synthesized for the real-time polymerase chain reaction were mixed with primer selective for ACC1 or Actine gene and QuantiTech Master Mix (QIAGEN). […] The Ct values per each treatment group were compared with the Ct values of the negative control group, and the differences in expression amount of genes were calculated. […]
# AML12 cells = assay: as above; type: cell-based; details: AML12 mouse liver cells, 1 μM alone or with 500 nM T0901317, 18 hours
# Method: as §1
# Runx2, Osteocalcin, Msx2 = assay: Real time PCR of osteoblast differentiation mark factors; type: cell-based, mouse; details: C3H/10T1/2 treated for 6 days, RTPCR
# Method: An aliquot 116V and an aliquot 116VI extracted and partitioned from sponges are dissolved in a DMSO solvent, and used to treat the C3H/10T1/2 cell line, mesenchymal progenitor cells, at concentrations of 1, 2.5, 5, 10, and 20 ug/ml. […] Since then, the same experiment was performed on the compound (1163), the compound 2 (1162), the compound 3 (1161), and the compound 4 (1164), which were purely separated from the aliquots 116V and 116VI, and as a result, it could be confirmed that the osteoblast differentiation ability was increased in the compounds 1, 3, and 4. […] To study a mechanism with respect to osteoblast differentiation ability, the C3H/10T1/2 cell lines were treated with the compound 1 and the compound 4 for 6 days, respectively. […] Also, the C3H/10T1/2 cell lines were treated with the compound 1 and the compound 4 for 6 days, respectively. […] Furthermore, it could be ascertained that combining of Runx2 and TAZ proteins was increased by treatment of the compounds and thus the activity of Runx2-meditated transcription was increased. The compound 5, which is an ester derivative of the compound 1 (1163), was synthesized in order to prepare a material having more excellent bioactivity, and the structure of the compound 5 obtained thus was determined. […]
# mouse spleen cells = assay: Cytotoxicity, Cell Titer-Glo cell viability; type: cell-based; details: mouse spleen cells vs LXR
# Method: (§2) Spleen cells of a mouse were used in measurement of cytotoxicity in […] cells. The spleen cells of the mouse were prepared as follows. The spleen from a 5˜6-week age mouse was finely minced, and only floating spleen cells were filtered through a net having a pore size of 100 μm. Erythrocytes mixed with the spleen cells were lysed by using erythrocyte lysis buffer, and then removed by centrifugation, precipitation and washing of the cells. The prepared spleen cells were seeded in 96-well plates at a concentration of 5×10^5 cells/well. Here, the spleen cells were treated with the compound of Formula 1 for measurement of toxicity according to the concentrations. The next day, the cells cultured for 16-18 hours were treated with Cell Titer-Glo Luminescent Cell Viability Assay (Promega), and after 10 minutes, cell viability was measured using the luminometer.
# [1] = Cytotoxicity, Cell Titer-Glo cell viability; type: cell-based, mouse; details: primary mouse spleen cells; mouse spleen cells, 16-18 hours
# Method: as §2
# LXR protein = assay: Biacore direct binding experiment
structure (smiles),measurement,setting,value
CC(C)=CCC/C(C)=C/[C@H]1CC(C)=C[C@@]2(C=C(CO)[C@@H]3CC(=O)C(C)=C[C@@H]3O2)O1 [Compound 1],adipocyte differentiation inhibitory ability at low concentration,"C3H/10T1/2 cells; C3H/10T1/2, 1 μg/ml",remarkable adipocyte differentiation inhibitory ability
same,adipocyte differentiation ability,"C3H/10T1/2 cells; C3H/10T1/2, 10 μg/ml",remarkably decreased
same,"expression of fatty acid biosynthesis genes SREBP1c, ACC, and FAS",HepG2 cells,inhibited the expression
same,"expression of fatty acid biosynthesis genes SREBP1c, ACC, and FAS",AML12 cells,inhibited the expression
same,"transcription degree of differentiation mark factors (Runx2, Osteocalcin, Msx2, etc.)","Runx2, Osteocalcin, Msx2",remarkably increased
same,cytotoxicity IC50 compared with antagonistic concentration against LXR,mouse spleen cells,≥ 1000 times
same,IC50,[1],63 µM
same,direct binding with the LXR protein,LXR protein,directly bound

# Source: patent US8703813B2, “Compound with spiro chiral carbon backbone, preparation method thereof, and pharmaceutical composition containing the same” (SNU R & DB Foundation, priority 2008, dated 2014)
